Measured values as given in ChEMBL document CHEMBL4049458, “Structure-Based Optimization of Thiophene[3,2-d]pyrimidine Derivatives as Potent HIV-1 Non-nucleoside Reverse Transcriptase Inhibitors with Improved Potency against Resistance-Associated Variants” (J Med Chem, 2017).

Tests used:
[1] = Selectivity index, ratio of CC50 for human MT4 cells to EC50 for wild type HIV1 3B harboring reverse transcriptase infected in human MT4 cells
[2] = Cytotoxicity against human MT4 cells assessed as cell viability after 5 days by MTT assay; format: cell-based
[3] = Selectivity index, ratio of CC50 for human MT4 cells to EC50 for reverse transcriptase L100I mutant in human MT4 cells infected HIV1 3B
[4] = Selectivity index, ratio of CC50 for human MT4 cells to EC50 for HIV1 RES056 reverse transcriptase K103N/Y181C double mutant infected in human MT4 cells
[5] = Selectivity index, ratio of CC50 for human MT4 cells to EC50 for reverse transcriptase E138K mutant in human MT4 cells infected HIV1 3B
[6] = tested on: Human immunodeficiency virus 2; assay: Antiviral activity against HIV2 ROD harboring reverse transcriptase infected in human MT4 cells assessed as protection against virus induced cytotoxicity after 5 days by MTT assay; format: functional, cell-based; conditions: Human immunodeficiency virus 2, ISOLATE ROD, MT4, 120 h
[7] = Selectivity index, ratio of CC50 for human MT4 cells to EC50 for reverse transcriptase F227L/V106A double mutant in human MT4 cells infected HIV1 3B
[8] = tested on: Human immunodeficiency virus 1; assay: Antiviral activity against wild type HIV1 3B harboring reverse transcriptase infected in human MT4 cells assessed as protection against virus induced cytotoxicity after 5 days by MTT assay; format: functional, cell-based; conditions: Human immunodeficiency virus 1, 3B, MT4, 120 h
[9] = Selectivity index, ratio of CC50 for human MT4 cells to EC50 for reverse transcriptase Y181C mutant in human MT4 cells infected HIV1 3B
[10] = Selectivity index, ratio of CC50 for human MT4 cells to EC50 for reverse transcriptase Y188L mutant in human MT4 cells infected HIV1 3B
[11] = Selectivity index, ratio of CC50 for human MT4 cells to EC50 for reverse transcriptase K103N mutant in human MT4 cells infected HIV1 3B

SMILES	selectivity ratio ([1]; MT4 cells)	CC50 at 120 h [2] [µM]	selectivity ratio ([3]; MT4 cells)	selectivity ratio ([4]; MT4 cells)	selectivity ratio ([5]; MT4 cells)	EC50 [6] [µM]	selectivity ratio ([7]; MT4 cells)	EC50 [8] [nM]	selectivity ratio ([9]; MT4 cells)	selectivity ratio ([10]; MT4 cells)	selectivity ratio ([11]; MT4 cells)	selectivity ratio [1]	selectivity ratio [3]	selectivity ratio [4]	selectivity ratio [5]	selectivity ratio [7]	selectivity ratio [9]	selectivity ratio [10]	selectivity ratio [11]
Cc1ccccc1CN1CCC(Nc2nc(Oc3c(C)cc(/C=C/C#N)cc3C)c3sccc3n2)CC1	180	2.83	60	3	22	> 2.83	46	15.7	33	16	114	–	–	–	–	–	–	–	–
Cc1cc(/C=C/C#N)cc(C)c1Oc1nc(NC2CCN(Cc3cccc(Cl)c3)CC2)nc2ccsc12	188	4.88	163	33	37	> 4.88	72	25.9	69	29	164	–	–	–	–	–	–	–	–
O=C1Nc2ccc(Cl)cc2[C@@](C#CC2CC2)(C(F)(F)F)O1 [EFAVIRENZ]	–	> 6.33	–	–	–	–	–	–	–	–	–	–	–	–	–	–	–	–	–
Cc1cc(/C=C/C#N)cc(C)c1Oc1nc(NC2CCN(Cc3cccc(C(N)=O)c3)CC2)nc2ccsc12	1080	3.53	689	81	551	> 3.53	448	3.26	563	129	1190	–	–	–	–	–	–	–	–
Cc1cc(/C=C/C#N)cc(C)c1Oc1nc(NC2CCN(Cc3ccc([N+](=O)[O-])cc3)CC2)nc2ccsc12	456	3.52	134	32	86	> 3.52	33	7.73	115	30	365	–	–	–	–	–	–	–	–
CCOC(=O)c1ccc(CN2CCC(Nc3nc(Oc4c(C)cc(C#N)cc4C)c4ccsc4n3)CC2)cc1	> 2330	> 230	> 160	> 6	> 463	> 230	> 63	98.9	> 207	> 124	> 625	–	–	–	–	–	–	–	–
Cc1cc(/C=C/C#N)cc(C)c1Oc1nc(NC2CCN(Cc3ccccc3Cl)CC2)nc2ccsc12	179	4.93	162	30	31	> 4.93	68	27.4	37	24	169	–	–	–	–	–	–	–	–
Cc1cc(/C=C/C#N)cc(C)c1Oc1nc(NC2CCN(Cc3ccc(C#N)cc3)CC2)nc2ccsc12	509	2.67	364	45	91	> 2.68	118	5.26	86	81	494	–	–	–	–	–	–	–	–
Cc1cc(/C=C/C#N)cc(C)c1Oc1nc(NC2CCN(Cc3ccccc3F)CC2)nc2ccsc12	392	2.48	32	14	74	> 2.48	61	6.34	83	18	361	–	–	–	–	–	–	–	–
Cc1cc(C#N)cc(C)c1Oc1nc(NC2CCC(NCc3ccc(Br)cc3)CC2)nc2ccsc12 (stereo unspecified)	10	3.45	≤ 2	< 1	4	> 3.45	< 1	339	< 1	< 1	≤ 5	–	–	–	–	–	–	–	–
Cc1cn([C@H]2C[C@H](N=[N+]=[N-])[C@@H](CO)O2)c(=O)[nH]c1=O [ZIDOVUDINE]	–	> 7.48	–	–	–	–	–	5.81	–	–	–	625	> 1990	> 675	> 1030	> 1560	> 1120	> 1180	> 1430
Cc1ccc(CN2CCC(Nc3nc(Oc4c(C)cc(/C=C/C#N)cc4C)c4sccc4n3)CC2)cc1	326	2.91	91	20	90	> 2.91	22	8.91	98	21	258	–	–	–	–	–	–	–	–
Cc1cc(C#N)cc(C)c1Oc1nc(NC2CCC(NCc3ccc(C#N)cc3)CC2)nc2ccsc12 (stereo unspecified)	1.3	5.15	< 1	< 1	< 1	> 5.15	< 1	3810	< 1	≤ 1	< 1	–	–	–	–	–	–	–	–
Cc1cc(C#N)cc(C)c1Oc1nc(NC2CCC(NCc3ccc(C(N)=O)cc3)CC2)nc2ccsc12 (stereo unspecified)	–	7.72	–	–	–	–	–	121	–	–	–	–	–	–	–	–	–	–	–
Cc1cc(C#N)cc(C)c1Oc1nc(NC2CCN(Cc3ccc(C(N)=O)cc3)CC2)nc2sccc12	32	4.93	9	3	6	> 4.93	< 1	152	20	< 1	11	–	–	–	–	–	–	–	–
CCOC(=O)c1ccc(CN2CCC(Nc3nc(Oc4c(C)cc(/C=C/C#N)cc4C)c4sccc4n3)CC2)cc1	≥ 247	≥ 3.61	≥ 134	≥ 22	≥ 96	> 3.61	≥ 42	14.6	≥ 110	≥ 22	≥ 273	–	–	–	–	–	–	–	–
Cc1cc(C#N)cc(C)c1Oc1nc(NC2CCCN(Cc3ccc(S(N)(=O)=O)cc3)C2)nc2ccsc12 (stereo unspecified)	–	1.17	–	–	–	–	–	> 1170	–	–	–	–	–	–	–	–	–	–	–
Cc1ccnc2c1NC(=O)c1cccnc1N2C1CC1 [NEVIRAPINE]	–	> 15	–	–	–	–	–	–	–	–	–	–	–	–	–	–	–	–	–
Cc1cc(/C=C/C#N)cc(C)c1Oc1nc(NC2CCN(Cc3ccc(Cl)cc3)CC2)nc2ccsc12	156	3.98	93	20	26	> 3.98	37	25.6	51	22	159	–	–	–	–	–	–	–	–
Cc1cc(C#N)cc(C)c1Oc1nc(NC2CCC(NCc3ccc(F)cc3)CC2)nc2ccsc12 (stereo unspecified)	5	2.76	3	< 1	≤ 2	> 2.76	< 1	553	< 1	< 1	3	–	–	–	–	–	–	–	–
Cc1cc(/C=C/C#N)cc(C)c1Oc1nc(NC2CCN(Cc3ccc(C(N)=O)cc3)CC2)nc2ccsc12	–	≥ 3.15	–	–	–	–	–	1.26	–	–	–	–	–	–	–	–	–	–	–
Cc1cc(/C=C/C#N)cc(C)c1Oc1nc(NC2CCN(Cc3ccc(Br)cc3)CC2)nc2ccsc12	240	6.79	117	44	44	> 6.79	42	28.3	53	24	227	–	–	–	–	–	–	–	–
Cc1cc(/C=C/C#N)cc(C)c1Oc1nc(NC2CCN(Cc3ccccc3Br)CC2)nc2ccsc12	140	5.61	117	16	39	> 5.61	63	40.2	45	37	124	–	–	–	–	–	–	–	–
Cc1cc(C#N)cc(C)c1Oc1nc(NC2CCCN(Cc3ccc(C(N)=O)cc3)C2)nc2ccsc12 (stereo unspecified)	–	19.5	–	–	–	–	–	3220	–	–	–	–	–	–	–	–	–	–	–
Cc1cc(C#N)cc(C)c1Oc1nc(NC2CCC(NCc3ccccc3)CC2)nc2ccsc12 (stereo unspecified)	13	2.97	3	< 1	3	> 2.97	3	230	< 1	< 1	4	–	–	–	–	–	–	–	–
Cc1cc(/C=C/C#N)cc(C)c1Oc1nc(NC2CCN(Cc3ccccc3C#N)CC2)nc2ccsc12	236	2.28	151	7	53	> 2.28	60	9.66	66	18	130	–	–	–	–	–	–	–	–
Cc1cc(C#N)cc(C)c1Oc1nc(NC2CCC(NCc3cccc(C(N)=O)c3)CC2)nc2ccsc12 (stereo unspecified)	–	9.21	–	–	–	–	–	135	–	–	–	–	–	–	–	–	–	–	–
